In patent US20200399243A1, “NOVEL COMPOUNDS” (Inflazome Limited, priority 2018, published 2020):
pIC50: −log10 of the molar value. Where a name gives a salt, the structure may show the parent alone.

Target: T1, NLRP3 (Homo sapiens, UniProt Q96P20)
T1 construct: Seed THP-1 cells (25,000 cells/well) containing 1.0 μg/ml LPS in 40 μl of RPMI medium; host or cells: THP-1 cells
Assay: THP-1 cells pyroptosis assay
Type: cell-based
Details: 1.0 μg/ml LPS, compound 3 hrs, nigericin 5 μM 1 hr, resazurin readout
Method: THP-1 cells (ATCC # TIB-202) were grown in RPMI containing L-glutamine (Gibco #11835) supplemented with 1 mM sodium pyruvate (Sigma # S8636) and penicillin (100 units/ml)/streptomycin (0.1 mg/ml) (Sigma # P4333) in 10% Fetal Bovine Serum (FBS) (Sigma # F0804). The cells were routinely passaged and grown to confluency (˜10^6 cells/ml). On the day of the experiment, THP-1 cells were harvested and resuspended into RPMI medium (without FBS). The cells were then counted and viability (>90%) checked by Trypan blue (Sigma # T8154). Appropriate dilutions were made to give a concentration of 625,000 cells/ml. To this diluted cell solution was added LPS (Sigma # L4524) to give a 1 μg/ml Final Assay Concentration (FAC). 40 μl of the final preparation was aliquoted into each well of a 96-well plate. The plate thus prepared was used for compound screening. The following method step-by-step assay was followed for compound screening. • 1. Seed THP-1 cells (25,000 cells/well) containing 1.0 μg/ml LPS in 40 μl of RPMI medium (without FBS) in 96-well, black walled, clear bottom cell culture plates coated with poly-D-lysine (VWR #734-0317) • 2. Add 5 μl compound (8 points half-log dilution, with 10 μM top dose) or vehicle (DMSO 0.1% FAC) to the appropriate wells • 3. Incubate for 3 hrs at 37° C., 5% CO2 • 4. Add 5 μl nigericin (Sigma # N7143) (FAC 5 μM) to all wells • 5. Incubate for 1 hr at 37° C., 5% CO2 • 6. At the end of the incubation period, spin plates at 300×g for 3 mins and remove supernatant 7. Then add 50 μl of resazurin (Sigma # R7017) (FAC 100 μM resazurin in RPMI medium without FBS) and incubate plates for a further 1-2 hrs at 37° C. and 5% CO2 • 8. Plates were read in an Envision reader at Ex 560 nm and Em 590 nm • 9. IC50 data is fitted to a non-linear regression equation (log inhibitor vs response-variable slope 4-parameters) The results of the pyroptosis assay are summarised in Table 2 below as THP IC50.

T1 sequence (Q96P20 whole entry): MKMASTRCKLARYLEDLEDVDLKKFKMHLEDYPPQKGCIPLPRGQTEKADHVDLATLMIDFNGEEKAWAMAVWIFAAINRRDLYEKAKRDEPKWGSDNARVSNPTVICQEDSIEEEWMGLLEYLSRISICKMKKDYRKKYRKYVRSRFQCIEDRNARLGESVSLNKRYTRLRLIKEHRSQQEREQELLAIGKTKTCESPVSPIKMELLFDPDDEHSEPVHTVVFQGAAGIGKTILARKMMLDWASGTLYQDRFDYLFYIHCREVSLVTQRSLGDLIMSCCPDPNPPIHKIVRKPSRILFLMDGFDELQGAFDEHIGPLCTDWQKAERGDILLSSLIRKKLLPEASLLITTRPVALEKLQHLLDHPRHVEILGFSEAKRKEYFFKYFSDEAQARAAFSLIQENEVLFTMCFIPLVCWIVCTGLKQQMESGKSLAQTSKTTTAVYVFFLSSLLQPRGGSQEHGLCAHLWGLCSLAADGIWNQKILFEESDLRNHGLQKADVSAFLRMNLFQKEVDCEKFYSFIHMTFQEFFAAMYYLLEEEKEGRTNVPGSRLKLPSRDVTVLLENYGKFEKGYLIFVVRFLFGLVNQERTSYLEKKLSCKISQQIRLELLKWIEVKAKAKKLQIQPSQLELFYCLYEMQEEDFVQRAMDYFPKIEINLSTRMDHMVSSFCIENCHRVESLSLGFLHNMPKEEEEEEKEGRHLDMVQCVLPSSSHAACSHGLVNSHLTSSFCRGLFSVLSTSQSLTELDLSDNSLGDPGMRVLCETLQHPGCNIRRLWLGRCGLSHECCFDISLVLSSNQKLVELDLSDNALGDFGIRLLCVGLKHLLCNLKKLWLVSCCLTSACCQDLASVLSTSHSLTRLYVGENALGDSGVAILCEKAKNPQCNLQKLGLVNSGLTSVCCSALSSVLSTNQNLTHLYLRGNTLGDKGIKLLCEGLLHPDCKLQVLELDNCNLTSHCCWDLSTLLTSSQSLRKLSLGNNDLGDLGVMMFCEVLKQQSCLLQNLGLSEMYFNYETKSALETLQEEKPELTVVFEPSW

## CC(C)c1cc(F)cc(C(C)C)c1CC(=O)NS(=O)(=O)c1cc(C(=O)N(C)C)n(C)n1 [Example 2, 3-(N-(2-(4-Fluoro-2,6-diisopropylphenyl)acetyl)sulfamoyl)-N,N,1-trimethyl-1H-pyrazole-5-carboxamide]
  pIC50: 5.30 to 6.00

## CN(C)CC(C)(C)n1ccc(S(=O)(=O)NC(=O)Cc2c3c(cc4c2CCC4)CCC3)n1 [Example 13, N-((1-(1-(Dimethylamino)-2-methylpropan-2-yl)-1H-pyrazol-3-yl)sulfonyl)-2-(1,2,3,5,6,7-hexahydro-s-indacen-4-yl)acetamide]
  pIC50: 5.00 to 5.30

## COc1cc(-c2cc(F)cc(C(C)C)c2CC(=O)NS(=O)(=O)c2cc(CN(C)C)n(C)n2)ccn1 [Example 8, N-((5-((Dimethylamino)methyl)-1-methyl-1H-pyrazol-3-yl)sulfonyl)-2-(4-fluoro-2-isopropyl-6-(2-methoxypyridin-4-yl)phenyl) acetamide, potassium salt]
  pIC50: 5.30 to 6.00

## CC(c1cc(S(=O)(=O)NC(=O)Cc2c3c(cc4c2CCC4)CCC3)nn1C)N(C)C (stereo not drawn) [Example 11, N-((5-(1-(Dimethylamino)ethyl)-1-methyl-1H-pyrazol-3-yl)sulfonyl)-2-(1,2,3,5,6,7-hexahydro-s-indacen-4-yl)acetamide]
  pIC50: 5.30 to 6.00

## COc1cc(-c2cc(F)cc(C(C)C)c2CC(=O)NS(=O)(=O)c2cc(C(=O)N(C)C)n(C)n2)ccn1 [Example 4, 3-(N-(2-(4-Fluoro-2-isopropyl-6-(2-methoxypyridin-4-yl)phenyl)acetyl)sulfamoyl)-N,N,1-trimethyl-1H-pyrazole-5-carboxamide, potassium salt]
  pIC50: ≥ 6.00

## COc1cc(-c2ccc3c(c2CC(=O)NS(=O)(=O)c2cc(C(=O)N(C)C)n(C)n2)CCC3)ccn1 [Example 14, 3-(N-(2-(5-(2-Methoxypyridin-4-yl)-2,3-dihydro-1H-inden-4-yl)acetyl)sulfamoyl)-N,N,1-trimethyl-1H-pyrazole-5-carboxamide]
  pIC50: 5.00 to 5.30

## CC(c1cc(S(=O)(=O)NC(=O)Cc2c3c(cc4c2CCC4)CCC3)nn1C1CC1)N(C)C (stereo not drawn) [Example 9, N-((1-Cyclopropyl-5-(1-(dimethylamino)ethyl)-1H-pyrazol-3-yl)sulfonyl)-2-(1,2,3,5,6,7-hexahydro-s-indacen-4-yl)acetamide]
  pIC50: 5.30 to 6.00

## CC(C)c1cc(F)cc(-c2ccncc2)c1CC(=O)NS(=O)(=O)c1cc(C(=O)N(C)C)n(C)n1 [Example 6, 3-(N-(2-(4-Fluoro-2-isopropyl-6-(pyridin-4-yl)phenyl)acetyl)sulfamoyl)-N,N,1-trimethyl-1H-pyrazole-5-carboxamide, potassium salt]
  pIC50: 5.30 to 6.00

## CC(C)n1nc(S(=O)(=O)NC(=O)Cc2c3c(cc4c2CCC4)CCC3)cc1CN(C)C [Example 1, N-((5-((Dimethylamino)methyl)-1-isopropyl-1H-pyrazol-3-yl)sulfonyl)-2-(1,2,3,5,6,7-hexahydro-s-indacen-4-yl)acetamide]
  pIC50: 5.30 to 6.00

## CN(C)C(=O)c1cc(S(=O)(=O)NC(=O)Cc2c3c(cc4c2CCC4)CCC3)nn1C [Example 12, 3-(N-(2-(1,2,3,5,6,7-Hexahydro-s-indacen-4-yl)acetyl)sulfamoyl)-N,N,1-trimethyl-1H-pyrazole-5-carboxamide]
  pIC50: 5.00 to 5.30

## CC(C)c1cc(F)cc(C(C)C)c1CC(=O)NS(=O)(=O)c1ccn(CCN(C)C)n1 [Example 16, N-((1-(2-(Dimethylamino)ethyl)-1H-pyrazol-3-yl)sulfonyl)-2-(4-fluoro-2,6-diisopropylphenyl)acetamide]
  pIC50: 5.00 to 5.30

## CC(C)c1cc(F)cc(-c2ccncc2)c1CC(=O)NS(=O)(=O)c1ccn(C(C)(C)CN(C)C)n1 [Example 7, N-((1-(1-(Dimethylamino)-2-methylpropan-2-yl)-1H-pyrazol-3-yl)sulfonyl)-2-(4-fluoro-2-isopropyl-6-(pyridin-4-yl)phenyl)acetamide, potassium salt]
  pIC50: 5.30 to 6.00

## CC(C)c1cc(F)cc(C(C)C)c1CC(=O)NS(=O)(=O)c1cc(CN(C)C)n(C2CC2)n1 [Example 10, N-((1-Cyclopropyl-5-((dimethylamino)methyl)-1H-pyrazol-3-yl)sulfonyl)-2-(4-fluoro-2,6-diisopropylphenyl)acetamide]
  pIC50: 5.30 to 6.00

## CC(C)c1cc(F)cc(-c2ccncc2)c1CC(=O)NS(=O)(=O)c1cc(CN(C)C)n(C)n1 [Example 17, N-((5-((Dimethylamino)methyl)-1-methyl-1H-pyrazol-3-yl)sulfonyl)-2-(4-fluoro-2-isopropyl-6-(pyridin-4-yl)phenyl)acetamide]
  pIC50: 5.30 to 6.00

## CC(c1cc(S(=O)(=O)NC(=O)Cc2c3c(cc4c2CCC4)CCC3)nn1C(C)C)N(C)C (stereo not drawn) [Example 3, N-((5-(1-(Dimethylamino)ethyl)-1-isopropyl-1H-pyrazol-3-yl)sulfonyl)-2-(1,2,3,5,6,7-hexahydro-s-indacen-4-yl)acetamide]
  pIC50: 5.30 to 6.00

## CN(C)C(=O)c1cc(S(=O)(=O)NC(=O)Cc2c(-c3ccnc(C#N)c3)ccc3c2CCC3)nn1C [Example 15, 3-(N-(2-(5-(2-Cyanopyridin-4-yl)-2,3-dihydro-1H-inden-4-yl)acetyl)sulfamoyl)-N,N,1-trimethyl-1H-pyrazole-5-carboxamide]
  pIC50: 5.30 to 6.00

## CC(C)c1cc(F)cc(-c2cccnc2)c1CC(=O)NS(=O)(=O)c1cc(C(=O)N(C)C)n(C)n1 [Example 5, 3-(N-(2-(4-Fluoro-2-isopropyl-6-(pyridin-3-yl)phenyl)acetyl)sulfamoyl)-N,N,1-trimethyl-1H-pyrazole-5-carboxamide]
  pIC50: 5.30 to 6.00

## COc1cc(-c2cc(F)cc(C(C)C)c2CC(=O)NS(=O)(=O)c2ccn(C(C)(C)CN(C)C)n2)ccn1 [Example 18]
  pIC50: 5.30 to 6.00
